Source: US4717767A, “7-amino-3-(pyrazinylmethyl) or (pyridazinylmethyl)-cephalosporins” (Toyama Chemical Co., Ltd., priority 1982, dated 1988)

Columns and labels:
[1] = Acute toxicity, intravenous, mice; details: mouse, in vivo, mice (ICR, male, 20-24 g)
Text: LD50 values of the following test compounds were 3 g/kg or more when the compounds were intravenously administered to mice (ICR, male, body weight 20-24 g).

[2] = Urinary recovery after oral administration to mice; assay type: in vivo, mice (ICR, male); details: urine, 1 mg/mouse in 0.5% CMC, 0-6 hours, 5 mice, mean ± S.E., free carboxylic acid by bioassay with Kl. pneumoniae ATCC 10031
Experimental: A test compound was orally administered to mice (ICR, male, 4 weeks old) in an amount of 1 mg/mouse, and a urinary recovery was determined.
In the test compounds (No. 1 and No. 2), the ester group is easily removed in a living body, whereby the compounds are converted into the corresponding free carboxylic acids. Therefore, the urinary recovery was determined by quantitatively measuring the free carboxylic acids excreted into urine.
Administration method: A test compound suspended in 0.5% CMC (Carboxy Methyl Cellulose) was orally administered.
Quantitative measurement method: The amount of free carboxylic acid was measured by bioassay (a paper-disc method) using the test organism mentioned in Table 2.

Row | SMILES | LD50 [1] | dose excreted at 6 h [2]
1 | CO/N=C(\C(=O)NC1C(=O)N2C(C(=O)O)=C(Cn3cc[nH]c(=O)c3=O)CSC12)c1csc(N)n1 (centres unmarked) | ≥ 3000 mg/kg | 
2 | CO/N=C(\C(=O)NC1C(=O)N2C(C(=O)O)=C(Cn3[nH]c(=O)ccc3=O)CSC12)c1csc(N)n1 (centres unmarked) | ≥ 3000 mg/kg | 
3 | CO/N=C(\C(=O)NC1C(=O)N2C(C(=O)O)=C(Cn3ccn(C)c(=O)c3=O)CSC12)c1csc(N)n1 (centres unmarked) | ≥ 3000 mg/kg | 
4 | CO/N=C(\C(=O)NC1C(=O)N2C(C(=O)O)=C(Cn3nc(C)ccc3=O)CSC12)c1csc(N)n1 (centres unmarked) | ≥ 3000 mg/kg | 
5 | Cc1ccc(=O)n(CC2=C(C(=O)O)N3C(=O)C(NC(=O)/C(=N\OCC(=O)O)c4csc(N)n4)C3SC2)n1 (centres unmarked) [Compound 3] |  | 10.4 ± 1.1%
